Here are results for two molecules from article PMC5874726, “Comparison Study of Two Differently Clicked ^18F-Folates—Lipophilicity Plays a Key Role” (Pharmaceuticals, 2018).

Series [1] can be described thus: LogD at pH 7.4 via shake-flask method (octanol/PBS). The class given is physicochemical. To be noted: pH 7.4, shake-flask. The protocol:
The lipophilicity was determined by shake flask method in an octanol/PBS mixture. Table 1 gives an overview of logD values for ^18F-Alakyne and ^18F-Ala-folate as well as for ^18F-DBCO and ^18F-DBCO-folate. […] The reduced lipophilicity is expected to be an indicator for less non-specific background signals and a higher renal clearance rate.

For another series, the system named is FR-negative OC316 cells. As to the kind of experiment: Internalization studies in FR-negative OC316 cells. The class given is cell-based, human. To be noted: blocked KB cells and FR-negative OC316 cells. As to the method:
Two different temperatures (4 °C for receptor binding, 37 °C for receptor binding and internalization) and two different concentrations were assessed. […] Both radiofolates show a concentration as well as temperature depended increase of activity in the FR positive cells. […] This effect is not fully understood, but we presume the high lipophilicity in combination with the increased concentration being responsible for this high non-specific binding. […] Thus, about 90% of ^18F-DBCO-folate remained in solution, which is ideal for such a radiotracer assay set-up (see supporting information for pie chart of activity distribution, Figure S6). For ^18F-Ala-folate the overall receptor-bound and internalized fractions are similar to ^18F-DBCO-folate (see supporting information for pie chart of activity distribution, Figure S7).
As folate-receptor positive control, KB cells (derived from human cervical carcinoma; obtained from German Collection of Microorganisms and Cell Cultures), and OC316 cells (derived from human ovarian adenocarcinoma) as negative control were used. For FACS analysis, data of both cell lines see supporting information Figure S5. The cells were cultured in folate deficient RPMI 1640 medium containing 10% FCS, 1% penicillin-streptomycin and HEPES buffer (10 mM, 5 mL) grown at 37 °C in a humidified atmosphere containing 5% CO2. […]

In another series the test system is healthy balb/c mice. As to the kind of experiment: Ex vivo biodistribution in healthy balb/c mice. To be noted: Balb/c, mouse, in vivo, 60 min. The text has this:
(§1) All animal experiments were approved by the local ethical committee (permission no. 23177-07/G15-1-033). Balb/c and balb/c nude (Balb/c AnNRj-Foxn1nu) mice were kept on a folate-deficient rodent diet to reduce their blood level of folate to one found in humans. After 7 days of acclimatization, human KB tumor cells (2.5 x 10^6 cells in PBS) were inoculated in the right shoulder of each balb/c nude mouse. All in vivo treatments and imaging experiments were done under isoflurane anesthesia. Eleven or twelve days after inoculation, animals were intravenously injected with ^18F-DBCO-Folate and ^18F-Ala-Folate (5–8 MBq, 100–200 µL) via a lateral tail vein. […] PET/MRI-studies were performed on a nanoScan PET/MRI (Mediso, Budapest, Hungary). First MRI scans (Material Map for co-registration of the PET scan; 3D; GRE-EXT, FOV; slice thickness: 0.6 mm; TE: 2 ms; TR: 15 ms; flip angle: 25 deg) were acquired and then either a dynamic scan over 60 min starting with injection of the radiotracer or a static scan for 10 min after 50 min p.i. were performed. All mice, which underwent ex vivo biodistribution, were scanned first. Afterwards co-registered PET/MR images were analyzed via PMOD (version 3.6) and Inveon Research Workplace (version 4.2). For ex vivo biodistribution studies mice were euthanized 60 min p.i. and organs of interest were dissected, weighed, and measured in a γ-counter (PerkinElmer 2470 Wizard2, Perkin Elmer, Rodgau, Germany). The incorporated radioactivity was expressed as percentage of injected dose per gram of tissue (% ID/g).

A further series deals with KB-tumor bearing mice. As to the kind of experiment: Ex vivo biodistribution in KB-tumor bearing mice.
Description: as §1

In the next series the test system is KB tumor-bearing mice. Nature of the series: µPET imaging in KB tumor-bearing mice. It counts as in vivo, mouse. The following applies: static scan 50-60 min p.i.
Description: as §1

The mark [2] stands for this setting: balb/c nude (Balb/c AnNRj-Foxn1nu), mouse, in vivo, 60 min.

As for `C#CCNC(C[18F])C(=O)O` (stereo not drawn) [^18F-Alakyne], in series [1], the “logD7.4 Value” is recorded as −1.18 ± 0.03.
`Nc1nc2ncc(CNc3ccc(C(=O)NC(CCC(=O)NCCOCCOCCOCCn4cc(CNC(C[18F])C(=O)O)nn4)C(=O)O)cc3)nc2c(=O)[nH]1` (stereo not drawn) [^18F-Ala-folate]: the non-specific binding entry in the series with FR-negative OC316 cells is recorded as “lower non-specific binding”. Besides, in the series with healthy balb/c mice, the “uptake Appendix” value is 0.20 ± 0.11 %ID/g tissue, the “uptake Blood” value is reported as 0.29 ± 0.29 %ID/g tissue, the “uptake Heart” value was 0.32 ± 0.21 %ID/g tissue and the “uptake Inguinal lymph nodes” value is listed as 0.93 ± 0.67 %ID/g tissue. In the series on healthy balb/c mice, the “uptake Intestines (empty)” value is on record as 1.67 ± 1.12 %ID/g tissue, the “uptake Left kidney” value was 19.90 ± 8.63 %ID/g tissue, the “uptake Liver” value is 1.51 ± 1.26 %ID/g tissue and the “uptake Lung” value was 0.36 ± 0.16 %ID/g tissue. In the series with healthy balb/c mice, the “uptake Muscle” value was 0.26 ± 0.13 %ID/g tissue, the “uptake Pancreas” value was 0.33 ± 0.20 %ID/g tissue, the “uptake Right kidney” value came to 20.55 ± 9.71 %ID/g tissue and the “uptake Spleen” value was 0.15 ± 0.09 %ID/g tissue. Besides, the “uptake Stomach (empty)” value in the series on healthy balb/c mice was found to be 0.71 ± 0.24 %ID/g tissue. In addition, in the series with KB-tumor bearing mice (60 min p.i.), the tumor/blood ratio was found to be 10.11, the tumor/kidney ratio was 0.12 and the tumor/muscle ratio was 7.64. Also, in the series with KB-tumor bearing mice (setting [2]), the “reduction of activity in the tumor in the blocked group” value was determined as 85%, the “tumor uptake relative to ^18F-DBCO-folate” value is listed as 3 times, the “uptake Appendix” value stood at 0.39 ± 0.22 %ID/g tissue and the “uptake Blood” value is 0.17 ± 0.05 %ID/g tissue. Besides, in the series on KB-tumor bearing mice (setting [2]), the “uptake Heart” value came to 0.22 ± 0.09 %ID/g tissue, the “uptake Inguinal lymph nodes” value was 0.57 ± 0.15 %ID/g tissue, the “uptake Intestines (empty)” value worked out at 3.42 ± 2.18 %ID/g tissue and the “uptake Left kidney” value came to 14.49 ± 3.42 %ID/g tissue. Moreover, in the series on KB-tumor bearing mice (setting [2]), the “uptake Liver” value came out at 1.71 ± 1.02 %ID/g tissue, the “uptake Lung” value came to 0.28 ± 0.05 %ID/g tissue, the “uptake Muscle” value was determined as 0.22 ± 0.02 %ID/g tissue and the “uptake Pancreas” value came to 0.26 ± 0.11 %ID/g tissue. Further, in the series on KB-tumor bearing mice (setting [2]), the “uptake Right kidney” value was determined as 14.27 ± 3.35 %ID/g tissue, the “uptake Spleen” value stood at 0.16 ± 0.04 %ID/g tissue, the “uptake Stomach (empty)” value was determined as 0.95 ± 0.50 %ID/g tissue and the “uptake Tumor” value amounted to 1.68 ± 0.13 %ID/g tissue. For the same molecule, the tumor/liver ratio with KB-tumor bearing mice (liver including gallbladder, 60 min p.i.) stood at 0.98. Further, the “visualization of KB tumors in maximum intensity projection (MIP) PET images” value in the series with KB tumor-bearing mice was “displayed the KB-tumor in the MIP”.
